For orientation: inhibition means the drop in the measured response relative to a control, in per cent. By IC50 is commonly meant the concentration at which inhibition is half-maximal. High values mean weaker potency in that assay, low ones greater potency in that assay.

Assay [1] addresses T1, NAD-dependent protein deacetylase sirtuin-1 (Homo sapiens) (UniProt Q96EB6).
T1 sequence (whole entry): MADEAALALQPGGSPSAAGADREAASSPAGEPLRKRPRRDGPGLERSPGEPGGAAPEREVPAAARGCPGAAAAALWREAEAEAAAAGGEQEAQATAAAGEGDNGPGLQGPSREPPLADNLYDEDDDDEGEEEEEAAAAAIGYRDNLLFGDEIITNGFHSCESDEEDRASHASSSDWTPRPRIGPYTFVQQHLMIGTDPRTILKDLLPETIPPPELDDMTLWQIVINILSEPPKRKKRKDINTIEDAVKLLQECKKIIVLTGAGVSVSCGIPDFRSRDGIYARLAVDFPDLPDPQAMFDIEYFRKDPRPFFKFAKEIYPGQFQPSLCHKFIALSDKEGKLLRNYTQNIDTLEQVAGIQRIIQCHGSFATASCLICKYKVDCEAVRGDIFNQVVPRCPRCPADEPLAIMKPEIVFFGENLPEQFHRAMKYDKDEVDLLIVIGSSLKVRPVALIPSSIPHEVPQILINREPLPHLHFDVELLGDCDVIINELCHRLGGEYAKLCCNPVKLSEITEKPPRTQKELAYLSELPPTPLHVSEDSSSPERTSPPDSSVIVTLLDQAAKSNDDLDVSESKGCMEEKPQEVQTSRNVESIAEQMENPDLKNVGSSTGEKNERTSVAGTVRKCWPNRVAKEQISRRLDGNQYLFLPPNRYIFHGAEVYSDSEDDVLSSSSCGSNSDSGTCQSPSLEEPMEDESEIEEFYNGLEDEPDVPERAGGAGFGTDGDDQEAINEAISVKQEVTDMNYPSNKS
Briefly: Inhibition of Sirt1 expressed in human U2OS cells assessed as acetylation of p53 at 10 uM. Type of assay: cell-based.

Another assay has as its system MDA-MB-231. The assay is described as follows: Antiproliferative activity against human MDA-MB-231 cells by MTT assay. Type of assay: functional, cell-based. (In general: Tetrazolium assays rely on reduction of a dye to a coloured formazan, in cell work by metabolically active cells.)
In a further assay the test system is COLO 205. Briefly: Antiproliferative activity against human COLO205 cells by MTT assay. Type of assay: functional, cell-based.
Another assay deals with K562. The assay is described as follows: Antiproliferative activity against human K562 cells by MTT assay. The format is functional, cell-based.

Take `CCCc1nn(C)c2c(=O)[nH]c(-c3cccc([N+](=O)[O-])c3O)nc12`: in assay [1], the inhibition was 61%. The IC50 turned out to be 44 µM in the assay with MDA-MB-231 (Homo sapiens, MDA-MB-231); 10 µM with COLO 205 (Homo sapiens, COLO 205); 21 µM with K562 (Homo sapiens, K562).
Turning to `Cc1ccc(C(=O)Nc2ccc(S(=O)(=O)O)c3cc(S(=O)(=O)O)cc(S(=O)(=O)O)c23)cc1NC(=O)c1cccc(NC(=O)Nc2cccc(C(=O)Nc3cc(C(=O)Nc4ccc(S(=O)(=O)O)c5cc(S(=O)(=O)O)cc(S(=O)(=O)O)c45)ccc3C)c2)c1`, the inhibition in assay [1] was found to be 79%.
Consider `CCCc1nn(C)c2c(=O)[nH]c(-c3ccc(O)c(OC(F)F)c3)nc12`, for which the inhibition in assay [1] amounted to 63%. Also, the IC50 is 25 µM in the assay on MDA-MB-231 (Homo sapiens, MDA-MB-231); 7 µM in the assay with COLO 205 (Homo sapiens, COLO 205); 15 µM in the assay with K562 (Homo sapiens, K562).
As for `CCCc1nn(C)c2c(=O)[nH]c(-c3ccc(Br)cc3)nc12`, the IC50 with MDA-MB-231 (Homo sapiens, MDA-MB-231) stood at 46 µM; with COLO 205 (Homo sapiens, COLO 205), 25 µM; in the assay on K562 (Homo sapiens, K562) it was 17 µM.
Turning to `CCCc1nn(C)c2c(=O)[nH]c(-c3cccc(Cl)c3)nc12`, the IC50 in the assay with MDA-MB-231 (Homo sapiens, MDA-MB-231) turned out to be 40 µM; with COLO 205 (Homo sapiens, COLO 205) it was 11 µM; in the assay with K562 (Homo sapiens, K562), 16 µM.
For `CCCc1nn(C)c2c(=O)[nH]c(-c3ccc(Cl)cc3)nc12`, in that order: 51 µM, 10 µM and 15 µM.
For `COc1ccc2c(c1)[nH]c1c(C)nccc12` [HARMINE], in that order: 32 µM, 8 µM and 14 µM.
Regarding `O=c1[nH]c(-c2ccc([N+](=O)[O-])cc2)nc2ccccc12`, the IC50 was determined as 37 µM with MDA-MB-231 (Homo sapiens, MDA-MB-231); 42 µM in the assay on MDA-MB-231 (mda-mb-231); 23 µM in the assay with COLO 205 (Homo sapiens, COLO 205); 12 µM in the assay on COLO 205 (colo 205); 20 µM in the assay on K562 (Homo sapiens, K562); 19 µM with K562 (k562).
For the compound `COc1ccc(-c2nc(O)c3ccccc3n2)cc1`, the IC50 was 28 µM in the assay on MDA-MB-231 (Homo sapiens, MDA-MB-231); 8 µM with COLO 205 (Homo sapiens, COLO 205); 24 µM in the assay on K562 (Homo sapiens, K562).
Regarding `O=c1[nH]c(-c2cccc(Cl)c2)nc2ccccc12`, the IC50 was 41 µM in the assay with MDA-MB-231 (Homo sapiens, MDA-MB-231); 12 µM with COLO 205 (Homo sapiens, COLO 205); 18 µM with K562 (Homo sapiens, K562).
With `CCCc1nn(C)c2c(=O)[nH]c(-c3ccc(OC)cc3)nc12`, the IC50 with MDA-MB-231 (Homo sapiens, MDA-MB-231) is 44 µM; in the assay on COLO 205 (Homo sapiens, COLO 205) it was 9 µM; in the assay with K562 (Homo sapiens, K562) it was 21 µM.
For the compound `Oc1nc(-c2ccc(F)cc2)nc2ccccc12`, in assay [1], the inhibition turned out to be 48%. The IC50 in the assay with MDA-MB-231 (Homo sapiens, MDA-MB-231) amounted to 20 µM; with COLO 205 (Homo sapiens, COLO 205) it was 10 µM; with K562 (Homo sapiens, K562), 17 µM.
On to `O=c1[nH]c(-c2ccc(Br)cc2)nc2ccccc12`, for which the IC50 with MDA-MB-231 (Homo sapiens, MDA-MB-231) turned out to be 41 µM; in the assay with COLO 205 (Homo sapiens, COLO 205), 11 µM; in the assay with K562 (Homo sapiens, K562) it was 21 µM.
As to `CCCc1nn(C)c2c(=O)[nH]c(-c3ccc(C)cc3)nc12`, the IC50 in the assay with MDA-MB-231 (Homo sapiens, MDA-MB-231) came to 48 µM; in the assay with COLO 205 (Homo sapiens, COLO 205), 14 µM; in the assay with K562 (Homo sapiens, K562), 19 µM.
As to `CCCc1nn(C)c2c(=O)[nH]c(-c3cccc(Br)c3)nc12`, in assay [1], the inhibition turned out to be 59%. In addition, the 50% inhibitory concentration (IC50) in the assay on MDA-MB-231 (Homo sapiens, MDA-MB-231) was found to be 38 µM; in the assay with COLO 205 (Homo sapiens, COLO 205) it was 12 µM; in the assay with K562 (Homo sapiens, K562), 24 µM.

The values are drawn from ChEMBL document CHEMBL2057091, “InCl3-catalysed synthesis of 2-aryl quinazolin-4(3H)-ones and 5-aryl pyrazolo[4,3-d]pyrimidin-7(6H)-ones and their evaluation as potential anticancer agents” (Bioorg Med Chem Lett, 2012).
